For one data set, the target named is T1, human CCR5 (Homo sapiens, UniProt P51681).
T1 construct: expressed in transfected cells
As to the kind of experiment: Inhibition of [125I]-RANTES binding to CHO/CCR5 cells (CCR5 antagonistic activity). The following applies: 1.0 μM test compound, 100 pM [125I]-RANTES, room temperature, 40 minutes; for inhibition at 1 µM: read-out: Inhibition Rate (%) at 1.0 μM. As to the method:
Cloning of CCR5 gene was carried out by PCR (polymerase chain reaction) from human spleen cDNA. With using 0.5 ng of spleen cDNA (Toyobo, QUICK-Clone cDNA) as a template, PCR was performed in DNA Thermal Cycler 480 (Perkin-Elmer) (reaction conditions: 30 cycles of 95° C. for 1 minute, 60° C. for 1 minute, and 75° C. for 5 minutes) by adding primer set, 5′-[…]-3′ (25 pmol) and 5′-[…]-3′ (25 pmol), which were designed referring to nucleotide sequence of CCR5 gene reported by Samson et al. (Biochemistry, 35 (11), 3362-3367 (1996)) and by using TaKaRa EX Taq (Takara Shuzo). The resultant PCR product was subjected to agarose gel electrophoresis to collect about 1.0 kb DNA fragment, which was subjected to Original TA Cloning Kit (Funakoshi) to carry out cloning of CCR5 gene.
The plasmid obtained in the above (1) was digested with restriction enzymes XbaI (Takara Shuzo) and BamHI (Takara Shuzo) and subjected to agarose gel electrophoresis to collect about 1.0 kb DNA fragment. The DNA fragment was mixed with plasmid pcDNA3.1 (Funakoshi) for expression in animal cells, said plasmid being digested with XbaI and BamHI, and they were ligated with DNA Ligation Kit Ver.2 (Takara Shuzo). The resulting plasmid was subjected to transformation of competent cell of E. coli JM109 (Takara Shuzo) to give plasmid pCKR5.
CHO-K1 cells were grown in 750 ml of tissue culture flask (Becton Dickinson) using Ham's F12 medium (Nihon Pharmaceutical) containing 10% fetal calf serum (Life Tech Oriental) and took off with 0.5 g/L trypsin-0.2 g/L EDTA (Life Tech Oriental). The cells were washed with PBS (Life Tech Oriental), centrifuged (1000 rpm, 5 minutes), and suspended in PBS. With using Gene Pulser (Bio-Rad Laboratories), DNA was introduced into the cells under the conditions shown below. That is, to the cuvette having 0.4 cm gap were added 8×10^6 cells and 10 μg of plasmid pCKR5 for expression of human CCR5, and electroporation was carried out under 0.25 kV of voltage and 960 μF of capacitance. The cells were transferred into Ham's F12 medium containing 10% fetal calf serum, and cultivated for 24 hours. The cells were again took off and centrifuged, and suspended in Ham's F12 medium containing 10% fetal calf serum and 500 μg/ml of geneticin (Life Tech Oriental). The suspension was diluted to give 10^4 cells/ml of the suspension, which was inoculated on 96 well plate (Becton Dickinson) to give geneticin resistant cells.
Then, the resulting geneticin resistant cells were cultivated in 96 well plate (Becton Dickinson), and cells expressing CCR5 were selected from the geneticin resistant cells. That is, in an assay buffer (Ham's F12 medium containing 0.5% BSA and 20 mM HEPES (Wako Pure Chemical, pH 7.2) to which was added 200 pM of [^125I]-RANTES (Amersham) as a ligand, binding reaction was carried out at room temperature for 40 minutes, and the buffer was washed with ice-cooled PBS. To the buffer was added 50 μl/well of 1M NaOH, and the mixture was stirred. Radioactivity was determined with γ-counter to select CHO/CCR5 cells which specifically bound with the ligand.
(4) Evaluation of Test Compounds Based on CCR5 Antagonistic Activity
The CHO/CCR5 were inoculated on 96 well microplate (5×10^4 cells/well) and cultivated for 24 hours. The medium was removed by means of suction, and to each well was added assay buffer containing Test Compound (1 μl) and then 100 pM of [^125I]-RANTES (Amersham) as a ligand. The reaction was carried out at room temperature for 40 minutes, and assay buffer was removed by means of suction. Each well was washed twice with cooled PBS, and 200 μl of Microscinti-20 (Packard Instrument, Inc.) was added to each well. Radioactivity was determined with Top-Count Micro Scintillation Counter (Packard Instrument, Inc.).
According to the method described above, the inhibition rate of the test compounds for CCR5 binding was determined.

Another data set relates to HIV-1 Ba-L. Description: Inhibitory effect on HIV-1 infection to MAGI-CCR5 cell. It counts as cell-based. The following applies: Human immunodeficiency virus 1, BAL, 48 h; final concentration 0.16 μM; MAGI-CCR5 cells; 300PFU HIV-1 Ba-L; 37° C., 2 days; blue cells counted. Here is the method: (5) Inhibitory Effect on HIV-1 Infection to MAGI-CCR5 Cell
The plasmid where β-galactosidase gene was ligated to the downstream of HIV-1 LTR was introduced into CD4 positive HeLa cell, to which human CCR^5 was further introduced to obtain transformant MAGI-CCR5. By using said transformant MAGI-CCR5, the degree of HIV-1 infection was calculated from β-galactosidase activity (blue color due to decomposition of 5-bromo-4-chloro-3-indolyl-β-D-galactopyranoside). Specifically, MAGI-CCR5 cells were suspended in DMEM medium containing 10% serum to prepare 5×10^4 cells/ml suspension. To each well of 96 well plate was inoculated 200 μl of the suspension, and the cells were cultivated at 37° C. overnight. The medium was removed by means of suction, and to the residue was added 100 μl of the above medium containing 0.32 μM of Test Compound and 100 μl of the above medium containing 300PFU of HIV-1 Ba-L cells. The final concentration of the test compound was 0.16 μM. The cells were cultivated at 37° C. for 2 days. The medium was removed by means of suction. To the residue was added 200 μl of cell fixative (PBS containing 1% formaldehyde and 0.2% glutaraldehyde), and the mixture was allowed to stand at room temperature for 5 minutes and washed twice with PBS. […] The number of blue cells was counted by microscope and defined as the number of cells infected with HIV-1.

Where a name gives a salt, the structure may show the parent alone.

T1 sequence (P51681 whole entry): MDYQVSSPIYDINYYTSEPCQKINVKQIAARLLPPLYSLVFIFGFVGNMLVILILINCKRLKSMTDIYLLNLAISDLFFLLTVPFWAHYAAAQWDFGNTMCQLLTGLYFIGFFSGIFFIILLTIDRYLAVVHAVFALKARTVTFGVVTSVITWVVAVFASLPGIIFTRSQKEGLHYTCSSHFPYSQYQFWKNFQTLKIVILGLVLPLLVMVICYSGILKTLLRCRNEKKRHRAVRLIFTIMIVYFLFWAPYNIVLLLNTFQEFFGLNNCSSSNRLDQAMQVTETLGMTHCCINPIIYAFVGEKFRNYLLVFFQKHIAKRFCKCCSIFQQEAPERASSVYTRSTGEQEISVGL

As to `O=C(NC1CCCCC1)N(CCCN1CCC(Cc2ccccc2)CC1)c1ccccc1` [Example 6, N-[3-(4-Benzyl-1-piperidinyl)propyl]-N′-cyclohexyl-N-phenylurea], the melting point was 106 to 108 °C.

With `O=C(Nc1ccccc1)N(CCCN1CCC(Cc2ccccc2)CC1)c1ccccc1` [Example 1, N-[3-(4-Benzyl-1-piperidinyl)propyl]-N-phenyl-N′-phenylurea hydrochloride], the inhibition at 1 µM on human CCR5 was found to be 96%.

As for `CS(=O)(=O)c1ccc(CC2CCN(CCCN(C(=O)Nc3ccc(Cl)cc3)c3ccccc3)CC2)cc1.Cl` [Example 72, N′-(4-Chlorophenyl)-N-(3-{4-[4-(4-methylsulfonyl)benzyl]-1-piperidinyl}propyl)-N-phenylurea hydrochloride], the “Inhibition Rate (%) at 1.0 μM” value on human CCR5 came out at 94%.

On to `O=C(Nc1ccc(Cl)cc1)N(CCCN1CCC(Cc2ccc(S(=O)(=O)N3CCOCC3)cc2)CC1)c1ccccc1` [Example 71, N′-(4-Chlorophenyl)-N-(3-{4-[4-(4-morpholinylsulfonyl)benzyl]-1-piperidinyl}propyl)-N-phenylurea hydrochloride], for which the inhibition at 1 µM on human CCR5 was found to be 98%.

In the case of `Cc1ccc(N(CCCN2CCC(Cc3ccccc3)CC2)C(=O)Nc2ccc(Cl)cc2)cc1` [Example 10, N-[3-(4-Benzyl-1-piperidinyl)propyl]-N′-(4-chlorophenyl)-N-(4-methylphenyl)urea hydrochloride], the inhibition at 1 µM at human CCR5 worked out at 100%.

In the data set with HIV-1 Ba-L, `O=C(Nc1ccc(Cl)cc1)N(CCCN1CCC(Cc2ccccc2)CC1)c1ccccc1` [Example 76, N-[3-(4-Benzyl-1-piperidinyl)propyl]-N′-(4-chlorophenyl)-N-phenylurea hydrochloride] gave an inhibition at 0.16 µM of 98%.

Consider `O=C(Nc1ccc(Cl)cc1)N(CCCN1CCC(Cc2ccc(F)cc2)CC1)c1ccc(Cl)c(Cl)c1` [Example 12, N′-(4-Chlorophenyl)-N-(3,4-dichlorophenyl)-N-{3-[4-(4-fluorobenzyl)-1-piperidinyl]propyl}urea], for which the inhibition at 1 µM at human CCR5 amounted to 92%.

Compound `O=C(Nc1ccc(Cl)cc1)N(CCCN1CCC(Cc2ccccc2)CC1)c1ccccc1` [Example 2, N-[3-(4-Benzyl-1-piperidinyl)propyl]-N′-(4-chlorophenyl)-N-phenylurea] gave a melting point of 101 to 103 °C.

For `CCCNC(=O)N(CCCN1CCC(Cc2ccccc2)CC1)c1ccccc1` [Example 7, N-[3-(4-Benzyl-1-piperidinyl)propyl]-N-phenyl-N′-propylurea], at human CCR5, the inhibition at 1 µM is 92%.

As to `O=C(Nc1cccc2ccccc12)N(CCCN1CCC(Cc2ccccc2)CC1)c1ccccc1` [Example 13, N-[3-(4-Benzyl-1-piperidinyl)propyl]-N′-(1-naphthyl)-N-phenylurea], the melting point is 124 to 127 °C. The inhibition at 1 µM at human CCR5 turned out to be 67%.

Broadly, the melting point is the temperature of the solid-liquid transition. The inhibition is the share of the control response that was lost under treatment.
